Starred links: 1 amine or outer side, 2 acyl side, 3 side chain; linkers in the order of their positions; H or OH if unused. Positions of bridges follow the written chain, without caps; N, C: chain ends. Non-standard residues stand in square brackets, D forms with d. Residues, ends and D or L forms follow the SMILES beside them. *: point of attachment. C20 diacid = O=C(O)CCCCCCCCCCCCCCCCCCC(=O)*; γGlu = O=C(O)[C@H](CCC(=O)[*:2])N[*:1]; Hyp = O=C(O)[C@@H]1C[C@@H](O)CN1; CH2 = C([*:1])[*:2]
What was measured:
hAM1 receptor = molecular target: T1, hAM1 receptor (Homo sapiens, UniProt O60895+Q16602); assay: cAMP assay for in vitro receptor activation, hAM1-R; assay type: cell-based; conditions: cells stably overexpressing hAM1 receptor, cAMP accumulation, 30 min stimulation; read-out: hAM1R EC50
T1 construct: monoclonal sub-clone
Procedure: General Protocols for cAMP Assays for Measuring In Vitro Receptor Activation hAMY3-R:
Cells stably overexpressing the hAM1 receptor were obtained from Ogeda (now Astellas Pharma), sub-cloned and a monoclonal cell-line with an appropriate assay-window was expanded, aliquoted and frozen. An aliquot was thawed and plated in DPBS with 0.05% casein and 0.5 mM IBMX as 8000 cells/well in a 384-well format.

[1] = Physical stability of peptide analogues (Thioflavin T fibrillation); assay type: physicochemical; conditions: ThT fluorescence, 40° C., shaking, four days; pH 4 or pH 7 buffer
Procedure: General Protocols for Determination of Physical Stability of Peptide Analogues
Peptides were dissolved in buffers (50 mM sodium acetate at pH 4 or 50 mM sodium phosphate at pH 7) and incubated for one hour. The samples were then divided into two replicates of 80 μl in a black 384 well plate (μ-clear, Greiner Bio-One) and mixed with Thioflavin T (ThT) to a final concentration of 4 μM. The plate was sealed and placed in a plate reader (CLARIOstar, BMG) where the temperature was set at 40° C. during the course of the experiment. The samples were further stressed by shaking the plate at 700 rpm (linear) for five minutes before every measurement. The fluorescence was measured every 10 min for four days by exciting the ThT at 450 nm and measuring the emission at 480 nm. For each peptide, the ThT signal over time was smoothened using Local Polynomial Regression fitting (LOESS) as implemented in the statistical programming environment R. For the smoothened data, the maximum ThT signal was normalized in percent between the maximum ThT signal for hAMY and the buffer background.

[2] = Determination of deamidation and isomerization (LC-MS); assay type: physicochemical; conditions: 50 mM phosphate buffer pH 7, 40° C., up to 28 days
Procedure: General Protocol for Determination of Deamidation and Isomerization
Peptides were dissolved in 50 mM phosphate buffer (pH 7) and incubated at 40° C. for up to 28 days. The samples were then analysed on a Exploris120 mass spectrometer coupled to a Vanquish Tandem UPLC (both Thermo Fisher) equipped with an Acquity BEH C18 column (1.7 um, 2.1×50 mm, 130A, Waters). Peptides were eluted using a linear gradient starting at 5% over 7.5 min to 70% buffer B at a flow rate of 0.4 mL/min (buffer B=100% acetonitrile with 0.1% formic acid; buffer A=100% water with 0.1% formic acid). Data were acquired in data-dependent acquisition mode at a MS1 resolution of 60.000, and a MS2 resolution of 30.000 in positive mode (Top4). Peptides were fragmented with a normalized collision energy of 25%. Deamidation and isomerization were quantified using area under the curve integration.

[3] = Determination of dimer and HMWP formation (size exclusion chromatography); assay type: physicochemical; conditions: 50 mM phosphate buffer pH 7, 40° C., up to 28 days
Procedure: General Protocol for Determination of Dimer and HMWP Formation
Peptides were dissolved in 50 mM phosphate buffer (pH 7) and incubated at 40° C. for up to 28 days. The samples were then analysed using size exclusion chromatography analysis to quantify the amount of High Molecular Weight Products (HMWP), which is an overall term for covalently linked peptide dimers, trimers, and higher order multimers. Analyses were carried out on a Dionex Ultimate 3000 RS UHPLC Focused chromatography system (Thermo Scientific) equipped with a Acquity Protein BEH SEC 1.7 μm 4.6×300 mm 125 Å column (Waters part no 186006506). The solvent system consisted of two mobile phases that are assumed to break all non-covalent interactions between peptides leaving only monomeric peptide and covalent HMWP to be analysed. • Mobile phase A (all v/v %): 95% H2O, 5% MeCN (Acetonitrile), 0.1% TFA (Trifluoroacetic acid) • Mobile phase B (all v/v %): 95% MeCN, 5% H2O, 0.1% TFA
The typically load was 1 μl of 1.0 mg/ml, and the detection signal at 215 nm should optimally be between 0.1 and 1.5 abs units. Isocratic elution was done with 60% mobile phase B and a flow of 0.3 ml/min in 20 minutes. Chromatograms were integrated as HMWP (all peaks in front of the main peak) The amount of the various species was reported as area relative to total area in percentage.

T1 sequence (Q16602 23-461): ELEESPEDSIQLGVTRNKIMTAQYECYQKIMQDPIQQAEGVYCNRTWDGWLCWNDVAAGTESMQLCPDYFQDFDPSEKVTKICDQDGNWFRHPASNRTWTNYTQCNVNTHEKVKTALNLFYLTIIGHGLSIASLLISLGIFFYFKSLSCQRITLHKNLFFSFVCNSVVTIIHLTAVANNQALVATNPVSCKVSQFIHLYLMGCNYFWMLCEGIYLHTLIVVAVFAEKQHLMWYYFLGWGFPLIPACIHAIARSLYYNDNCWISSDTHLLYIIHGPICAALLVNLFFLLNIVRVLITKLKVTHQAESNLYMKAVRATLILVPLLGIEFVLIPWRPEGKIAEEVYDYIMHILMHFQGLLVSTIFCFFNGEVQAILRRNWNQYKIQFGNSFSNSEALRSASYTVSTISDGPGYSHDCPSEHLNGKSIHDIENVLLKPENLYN
T1 sequence (O60895 43-175 partner): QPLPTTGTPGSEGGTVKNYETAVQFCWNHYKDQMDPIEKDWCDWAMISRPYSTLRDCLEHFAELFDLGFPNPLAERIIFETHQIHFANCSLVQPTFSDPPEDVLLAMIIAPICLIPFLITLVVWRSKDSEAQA

EC50 (hAM1 receptor): > 5 µM
Fibril formation [1]: No
Deamidation [2]: < 5%
Isomerization [2]: 1.2%
Deamidation ([2]; listed as 4): <5%
Dimerization and HMWP formation [3]: 2%
Structure (SMILES): CC[C@H](C)[C@H](NC(=O)[C@H](CCC(N)=O)NC(=O)[C@H](CCC(=O)O)NC(=O)[C@H](C)NC(=O)[C@H](CC(C)C)NC(=O)[C@H](CCCNC(=N)N)NC(=O)[C@H](C)NC(=O)[C@@H](NC(=O)[C@@H](NC(=O)[C@@H]1CSCSC[C@H](NC(=O)[C@H](CCCCN)NC(=O)CC[C@H](NC(=O)CCCCCCCCCCCCCCCCCCC(=O)O)C(=O)O)C(=O)N[C@@H](CC(C)C)C(=O)N[C@@H]([C@@H](C)O)C(=O)N[C@@H](C)C(=O)N[C@@H]([C@@H](C)O)C(=O)N1)[C@@H](C)O)C(C)C)C(=O)N[C@@H](C)C(=O)N[C@@H](CCC(N)=O)C(=O)N[C@@H](Cc1ccccc1)C(=O)N[C@H](C(=O)N[C@@H](CC(=O)O)C(=O)N[C@@H](CCCCN)C(=O)N[C@@H](CC(=O)O)C(=O)N[C@@H](CCCCN)C(=O)N[C@@H](CCC(=O)O)C(=O)N[C@@H](CC(N)=O)C(=O)N[C@H](C(=O)N[C@@H](C)C(=O)N1CCC[C@H]1C(=O)N1CCC[C@H]1C(=O)N[C@H](C(=O)N[C@@H](C)C(=O)N[C@H](C(=O)NCC(=O)N[C@@H](CO)C(=O)N[C@@H](C)C(=O)NCC(=O)N1C[C@H](O)C[C@H]1C(N)=O)C(C)C)[C@@H](C)O)C(C)C)[C@@H](C)O [SEQ ID NO: 4] ({C20 diacid-γGlu}-KCLTATCTVARLAEQIAQFTDKDKENVAPPTAVGSAG[Hyp]-NH2; linker 2-7 via CH2)
